# Data published in patent US12077503B2, “Substituted cyclic amides and their use as herbicides” (FMC CORPORATION, priority 2015, dated 2024).
# Columns and labels:
# Type in all cases: in vivo
# Kochia (Kochia scoparia) [1] = test: Test A preemergence
# Method in brief: (§1)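 Visual injury scores from 0, no effect, to 100, complete control, were assigned versus untreated controls roughly 10 d after treatment in the greenhouse. Test chemicals, formulated with surfactant in a non-phytotoxic solvent, were applied to planted seeds as a preemergence soil spray or postemergence to one- to two-leaf plants 2 to 10 cm tall, in loam–sand soil.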
# [2] = test system: barnyardgrass (Echinochloa crus-galli); test: Test A preemergence
# Method in brief: as §1
# [3] = test system: giant foxtail (Setaria faberii); test: Test A preemergence
# Method in brief: as §1
# [4] = test system: pigweed (Amaranthus retroflexus); test: Test A preemergence
# [5] = test system: ragweed (common ragweed, Ambrosia elatior); test: Test A preemergence
# Method in brief: as §1
# [6] = test system: ryegrass, Italian (Italian ryegrass, Lolium multiflorum); test: Test A preemergence
# Method in brief: as §1
# [7] = test system: Galium (catchweed bedstraw, Galium aparine); test: Test A postemergence
# Method in brief: as §1
# Kochia (Kochia scoparia) [8] = test: Test A postemergence
# Method in brief: as §1
# [9] = test system: barnyardgrass (Echinochloa crus-galli); test: Test A postemergence
# Method in brief: as §1
# [10] = test system: blackgrass (Alopecurus myosuroides); test: Test A postemergence
# Method in brief: as §1
# corn (Zea mays) = test: Test A postemergence
# Method in brief: as §1
# [11] = test system: giant foxtail (Setaria faberii); test: Test A postemergence
# Method in brief: as §1
# [12] = test system: pigweed (Amaranthus retroflexus); test: Test A postemergence
# Method in brief: as §1
# [13] = test system: ragweed (common ragweed, Ambrosia elatior); test: Test A postemergence
# Method in brief: as §1
# [14] = test system: ryegrass, Italian (Italian ryegrass, Lolium multiflorum); test: Test A postemergence
# Method in brief: as §1
# [15] = test system: wheat (Triticum aestivum); test: Test A postemergence
# Method in brief: as §1
# [16] = test system: barnyardgrass (Echinochloa crus-galli); test: Test B flooded paddy test; settings: Flood, 0 to 100 scale where 0 is no effect and 100 is complete control, 13 to 15 d
# Method in brief: (§2)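 Visual ratings (0 none to 100 complete control) are relative to untreated plants, taken 13–15 d after treatment in a greenhouse. Test material went straight into floodwater standing 3 cm above the soil, kept constant, on plants at the 2-leaf stage.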
# [17] = test system: ducksalad (Heteranthera limosa); test: Test B flooded paddy test; settings: Flood, 0 to 100 scale where 0 is no effect and 100 is complete control, 13 to 15 d
# Method in brief: as §2
# rice (Oryra sativa) = test: Test B flooded paddy test; settings: Flood, 0 to 100 scale where 0 is no effect and 100 is complete control, 13 to 15 d
# Method in brief: as §2
# [18] = test system: sedge, umbrella (small-flower umbrella sedge, Cyperus difformis); test: Test B flooded paddy test; settings: Flood, 0 to 100 scale where 0 is no effect and 100 is complete control, 13 to 15 d
# Method in brief: as §2
# [19] = test system: lambsquarters (Chenopodium album); test: Test C preemergence; settings: for Plant response rating (scale of 0 to 100), Lambsquarters: 31 g ai/ha, 0 is no effect, 100 is complete control; for Plant response rating, Lambsquarters: scale 0 to 100, 0 no effect, 100 complete control
# Method in brief: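 Greenhouse test: seeds in a loam and sand blend treated preemergence, or seedlings at the 1- to 4-leaf stage (2 to 18 cm) in a peat, vermiculite and limestone mix treated postemergence, with test chemicals in a surfactant-containing non-phytotoxic solvent. Scored by eye at 13 to 15 d relative to controls, 0 (no effect) to 100 (complete control).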
# [20] = 125 g ai/ha, Preemergence, visual injury after approximately 10 d, 0 to 100 scale where 0 is no effect and 100 is complete control
# [21] = 500 g ai/ha, preemergence, 0 to 100 scale, 0 = no effect, 100 = complete control
# [22] = 125 g ai/ha, postemergence, visual rating after approx. 10 d, 0 to 100 scale (0 no effect, 100 complete control)
# [23] = Postemergence, 500 g ai/ha, 0 to 100 scale where 0 is no effect and 100 is complete control
# [24] = 125 g ai/ha, preemergence, visual rating after approx. 10 d, 0 to 100 scale where 0 is no effect and 100 is complete control
# [25] = 125 g ai/ha, postemergence, visual injury after approximately 10 d, 0 to 100 scale (0 no effect, 100 complete control)
# [26] = 500 g ai/ha, postemergence, visual injury, 0 to 100 scale (0 no effect, 100 complete control), approx. 10 d
smiles,measurement,setting,value
CN1CC(c2ccc(F)c(C(F)(F)F)c2)C(C(=O)Nc2cccc(F)c2F)C1=O (centres unmarked) [Compound 613],"Plant response rating, Kochia",Kochia (Kochia scoparia) [1]; [20],60
same,"Plant response rating, Kochia",Kochia (Kochia scoparia) [1]; [21],70
same,"Plant response rating, Barnyardgrass",[2]; [20],90
same,"Plant response rating, Barnyardgrass",[2]; [21],90
same,"Plant response rating, Foxtail, Giant",[3]; [20],90
same,"Plant response rating, Foxtail, Giant",[3]; [21],90
same,"Plant response rating, Pigweed",[4]; [20],70
same,"Plant response rating, Pigweed",[4]; [21],70
same,"Plant response rating, Ragweed",[5]; [20],60
same,"Plant response rating, Ragweed",[5]; [21],60
same,"Plant response rating, Ryegrass, Italian",[6]; [20],70
same,"Plant response rating, Ryegrass, Italian",[6]; [21],80
same,"Plant response rating, Galium",[7]; [22],60
same,"Plant response rating, Galium",[7]; [23],60
same,"Plant response rating, Kochia",Kochia (Kochia scoparia) [8]; [22],60
same,"Plant response rating, Kochia",Kochia (Kochia scoparia) [8]; [23],70
same,"Plant response rating, Barnyardgrass",[9]; [22],70
same,"Plant response rating, Barnyardgrass",[9]; [23],90
same,"Plant response rating, Blackgrass",[10]; [22],40
same,"Plant response rating, Blackgrass",[10]; [23],60
same,"Plant response rating, Corn",corn (Zea mays); [22],50
same,"Plant response rating, Corn",corn (Zea mays); [23],80
same,"Plant response rating, Foxtail, Giant",[11]; [22],90
same,"Plant response rating, Foxtail, Giant",[11]; [23],90
same,"Plant response rating, Pigweed",[12]; [22],50
same,"Plant response rating, Pigweed",[12]; [23],70
same,"Plant response rating, Ragweed",[13]; [22],20
same,"Plant response rating, Ragweed",[13]; [23],30
same,"Plant response rating, Ryegrass, Italian",[14]; [22],60
same,"Plant response rating, Ryegrass, Italian",[14]; [23],60
same,"Plant response rating, Wheat",[15]; [22],40
same,"Plant response rating, Wheat",[15]; [23],50
same,"Plant response rating, Barnyardgrass",[16]; 250 g ai/ha,80
same,"Plant response rating, Ducksalad",[17]; 250 g ai/ha,98
same,"Plant response rating, Rice",rice (Oryra sativa); 250 g ai/ha,10
same,"Plant response rating, Sedge, Umbrella",[18]; 250 g ai/ha,75
same,"Plant response rating (scale of 0 to 100), Lambsquarters",[19],25
same,"Plant response rating, Lambsquarters",[19]; 62 g ai/ha,60
same,"Plant response rating, Lambsquarters",[19]; 125 g ai/ha,50
same,"Plant response rating, Lambsquarters",[19]; 250 g ai/ha,75
O=C1NCC(c2cccc(OC(F)(F)C(F)F)c2)C1C(=O)Nc1ccccc1F (racemic) [Compound 695],"Plant response rating, Kochia",Kochia (Kochia scoparia) [1]; [20],30
same,"Plant response rating, Kochia",Kochia (Kochia scoparia) [1]; [21],90
same,"Plant response rating, Barnyardgrass",[2]; [20],90
same,"Plant response rating, Barnyardgrass",[2]; [21],90
same,"Plant response rating, Foxtail, Giant",[3]; [20],90
same,"Plant response rating, Foxtail, Giant",[3]; [21],90
same,"Plant response rating, Pigweed",[4]; [24],30
same,"Plant response rating, Pigweed",[4]; [21],40
same,"Plant response rating, Ragweed",[5]; [24],20
same,"Plant response rating, Ragweed",[5]; [21],40
same,"Plant response rating, Ryegrass, Italian",[6]; [24],40
same,"Plant response rating, Ryegrass, Italian",[6]; [21],30
same,"Plant response rating, Galium",[7]; [25],50
same,"Plant response rating, Galium",[7]; [26],40
same,"Plant response rating, Kochia",Kochia (Kochia scoparia) [8]; [25],30
same,"Plant response rating, Kochia",Kochia (Kochia scoparia) [8]; [26],50
same,"Plant response rating, Barnyardgrass",[9]; [22],80
same,"Plant response rating, Barnyardgrass",[9]; [26],90
same,"Plant response rating, Blackgrass",[10]; [22],0
same,"Plant response rating, Blackgrass",[10]; [26],40
same,"Plant response rating, Corn",corn (Zea mays); [25],80
same,"Plant response rating, Corn",corn (Zea mays); [26],80
same,"Plant response rating, Foxtail, Giant",[11]; [25],80
same,"Plant response rating, Foxtail, Giant",[11]; [26],80
same,"Plant response rating, Pigweed",[12]; [25],20
same,"Plant response rating, Pigweed",[12]; [26],30
same,"Plant response rating, Ragweed",[13]; [25],20
same,"Plant response rating, Ragweed",[13]; [26],40
same,"Plant response rating, Ryegrass, Italian",[14]; [25],0
same,"Plant response rating, Ryegrass, Italian",[14]; [26],20
same,"Plant response rating, Wheat",[15]; [25],20
same,"Plant response rating, Wheat",[15]; [26],40
same,"Plant response rating, Barnyardgrass",[16]; 500 g ai/ha,80
same,"Plant response rating, Ducksalad",[17]; 500 g ai/ha,100
same,"Plant response rating, Rice",rice (Oryra sativa); 500 g ai/ha,0
same,"Plant response rating, Sedge, Umbrella",[18]; 500 g ai/ha,0
same,"Plant response rating (scale of 0 to 100), Lambsquarters",[19],25
same,"Plant response rating, Lambsquarters",[19]; 62 g ai/ha,40
same,"Plant response rating, Lambsquarters",[19]; 125 g ai/ha,65
same,"Plant response rating, Lambsquarters",[19]; 250 g ai/ha,80
